Experimental data as given in PubChem BioAssay AID226 (DTP/NCI, 2004).
Several values for one entry are separate records, joined by “and”; a condition that tells them apart may be missing. Equal values may be shown once. Inconclusive results and toxic doses are left out.

System: B6C3F1 mice, intracerebral ependymoblastoma, median survival T/C
Assay: NCI In Vivo Anticancer Drug Screen. Data for tumor model Ependymoblastoma (intracerebral) in B6C3F1 mice
Conditions: endpoint: median survival time, higher = longer survival
Protocol: The antitumor activity of compounds was measured in mice bearing transplantable tumors. Survival or tumor size were measured and the results are expressed as the measurement made in the treated group (T) divided by the measurement made in the vehicle treated control group (C). The tumor model used in this assay is Ependymoblastoma (intracerebral) in B6C3F1 mice

[1] = dose: 32.0 mg/kg/injection, schedule: Q01DX005 (ip), vehicle: Klucel (hydroxypropylcellulose) (HPC)
[2] = dose: 128.0 mg/kg/injection, schedule: Q01DX005 (ip), vehicle: Klucel (hydroxypropylcellulose) (HPC)

`CC1CCC(NC(=O)N(CCCl)N=O)CC1` (configuration not stated) was tested, and the T/C (dose: 0.5 mg/kg/injection, schedule: Q01DX009 (ip), vehicle: Klucel (hydroxypropylcellulose) (HPC)) was 108 % of control, the T/C (dose: 1.0 mg/kg/injection, schedule: Q01DX005 (ip), vehicle: other) was 110 % of control and the T/C (dose: 1.0 mg/kg/injection, schedule: Q01DX009 (ip), vehicle: Klucel (hydroxypropylcellulose) (HPC)) was 106 % of control. For the same compound, the T/C (dose: 2.0 mg/kg/injection, schedule: Q01DX005 (ip), vehicle: other) was 160 % of control, the T/C (dose: 2.0 mg/kg/injection, schedule: Q01DX005 (ip), vehicle: saline) was 102 % of control and the T/C (dose: 2.0 mg/kg/injection, schedule: Q01DX009 (ip), vehicle: Klucel (hydroxypropylcellulose) (HPC)) was 112 % of control. For the same compound, the T/C (dose: 4.0 mg/kg/injection, schedule: Q01DX005 (ip), vehicle: other) was 119 % of control, the T/C (dose: 4.0 mg/kg/injection, schedule: Q01DX005 (ip), vehicle: saline) was 108 % of control and the T/C (dose: 6.25 mg/kg/injection, schedule: Q01DX001 (ip), vehicle: saline + alcohol) was 118 % of control. For the same compound, the T/C (dose: 8.0 mg/kg/injection, schedule: Q01DX005 (ip), vehicle: other) was 160 % of control, the T/C (dose: 8.3 mg/kg/injection, schedule: Q01DX001 (ip), vehicle: DMSO) was 104 % of control and the T/C (dose: 13.8 mg/kg/injection, schedule: Q01DX001 (ip), vehicle: DMSO) was 108 % of control. The T/C (dose: 16.0 mg/kg/injection, schedule: Q01DX001 (ip), vehicle: other) was 124 % of control, the T/C (dose: 16.0 mg/kg/injection, schedule: Q01DX005 (ip), vehicle: other) was 300 % of control and the T/C (dose: 23.0 mg/kg/injection, schedule: Q01DX001 (ip), vehicle: DMSO) was 122 % of control. The T/C (dose: 25.0 mg/kg/injection, schedule: Q01DX001 (ip), vehicle: saline + alcohol) was 182 % of control, the T/C (dose: 38.4 mg/kg/injection, schedule: Q01DX001 (ip), vehicle: DMSO) was 112 % of control and the T/C (dose: 50.0 mg/kg/injection, schedule: Q01DX001 (ip), vehicle: saline + alcohol) was 235 % of control. For the same compound, the T/C (dose: 64.0 mg/kg/injection, schedule: Q01DX001 (ip), vehicle: DMSO) was 118 % of control, the T/C (dose: 64.0 mg/kg/injection, schedule: Q01DX001 (ip), vehicle: other) was 191 % of control and the T/C (dose: 128.0 mg/kg/injection, schedule: Q01DX001 (ip), vehicle: other) was 204 % of control.

For `O=C(O)C1(C(=O)O)CCC1.[NH2-].[NH2-].[Pt+2]`, the T/C (dose: 16.0 mg/kg/injection, schedule: Q01DX005 (ip), vehicle: dextrose) was 110 % of control and 118 % of control and the T/C (dose: 32.0 mg/kg/injection, schedule: Q01DX005 (ip), vehicle: dextrose) was 119 % of control and 120 % of control.

For `O=c1[nH]c(=O)n(C2CC(O)C(CO)O2)cc1C(F)(F)F` (configuration not stated), the T/C [1] was 102 % of control and the T/C [2] was 97 % of control.

In the case of `CCC(=O)O[C@H]1CC[C@H]2[C@@H]3CCC4=CC(=O)CC[C@]4(C)[C@H]3CC[C@]12C`, the T/C (dose: 8.0 mg/kg/injection, schedule: Q01DX005 (ip), vehicle: Klucel (hydroxypropylcellulose) (HPC)) is reported as 97 % of control and 100 % of control, the T/C (dose: 16.0 mg/kg/injection, schedule: Q01DX005 (ip), vehicle: Klucel (hydroxypropylcellulose) (HPC)) is reported as 101 % of control and 87 % of control and the T/C [1] is reported as 101 % of control. The T/C (dose: 64.0 mg/kg/injection, schedule: Q01DX005 (ip), vehicle: Klucel (hydroxypropylcellulose) (HPC)) was 106 % of control, the T/C [2] was 102 % of control and 87 % of control and the T/C (dose: 256.0 mg/kg/injection, schedule: Q01DX005 (ip), vehicle: Klucel (hydroxypropylcellulose) (HPC)) was 95 % of control. The T/C (dose: 512.0 mg/kg/injection, schedule: Q01DX005 (ip), vehicle: Klucel (hydroxypropylcellulose) (HPC)) was 95 % of control and 86 % of control.
